Laboratory results: patent US8119569B2, “Benzoylpyrazole compounds, process for their production and herbicides containing them” (Ishihara Sangyo Kaisha, Ltd., priority 2006, dated 2012)

Key:
Type in all cases: in vivo
[1] = tested on: rice (Oryza sativa L.) (var.: Nihonbare); assay: Test Example 4: paddy field pot, water application, transplanted rice; settings: 63 g/ha, 21st day after application, crop
Source text: (§1) Paddy field soil was put into a 1/1,000,000 hectare pot, and seeds of barnyardgrass (Echinochloa oryzicola vasing.) and Japanese bulrush (Scirpus juncoides) were sown and lightly covered with soil. Then, pot was left to stand in a greenhouse in a state irrigated to a water depth of from 0.5 to 1 cm, and next day or two days later, tubers of Japanese ribbon waparo (Sagittaria pygmaea) were planted. Then, the irrigated water depth was maintained to be from 3 to 4 cm, and when barnyardgrass and Japanese bulrush reached 0.5 leaf stage, and Japanese ribbon waparo reached primary leaf stage, a water diluted solution of a wettable powder or an emulsifieable concentrate of the compound of the present invention prepared in accordance with a conventional preparation method, was uniformly dropwise applied by a pipette so that the amount of active ingredients would be a prescribed amount. Further, paddy field soil was put into a 1/1,000,000 pot, followed by soil puddling to an irrigated water depth of from 3 to 4 cm. Next day, rice (Oryza sativa L.) (var.: Nihonbare) of two leaf stage was transplanted in a transplantation depth of 3 cm. On the 4th day after transplantation, the compound of the present invention was applied in the same manner as described above.

[2] = tested on: velvetleaf (Abutilon theophrasti MEDIC.); assay: Test Example 1: foliar treatment, upland pot; settings: 7 g/ha, 21st day after application
Source text: Upland field soil was put into a 1/170,000 hectare pot, and seeds of various plants were sown. […] The spray solutions thus prepared were applied for foliar treatment by a small sprayer.

[3] = tested on: Japanese bulrush (Scirpus juncoides); assay: Test Example 4: paddy field pot, water application; settings: 63 g/ha, 14th day after application
Source text: as §1

[4] = tested on: barnyardgrass (Echinochloa oryzicola vasing.); assay: Test Example 4: paddy field pot, water application; settings: 63 g/ha, 14th day after application
Source text: as §1

[5] = tested on: Japanese ribbon waparo (Sagittaria pygmaea); assay: Test Example 4: paddy field pot, water application; settings: 63 g/ha, 14th day after application
Source text: as §1

[6] = tested on: velvetleaf (Abutilon theophrasti MEDIC.); assay: Test Example 2: soil application on the day after sowing; settings: 250 g/ha, 19th to 22nd day after application
Source text: (§2) Upland field soil was put into a 1/170,000 hectare pot, and seeds of various plants (barnyardgrass (Echinochloa crus-galli L.), crabgrass (Digitaria sanguinalis L.), green foxtail (Setaria viridis L.), redroot pigweed (Amaranthus retroflexus L.), prickly sida (Sida spinosa L.), velvetleaf (Abutilon theophrasti MEDIC.), rice (oryza sativa L.), corn (Zea mays L.) and soybean (Glycine max Merr.)) were sown. On the day after sowing, wettable powders or emulsifiable concentrates of the compounds of the present invention prepared in accordance with a conventional preparation method, were weighed so that the active ingredients became the prescribed amounts, and diluted with water in an amount corresponding to 500 liter per 1 hectare, followed by soil application with a small sprayer.

[7] = tested on: rice (Oryza sativa L.); assay: as above; settings: 250 g/ha, 19th to 22nd day after application, crop
Source text: as §2

[8] = tested on: soybean (Glycine max Merr.); assay: as above; settings: 250 g/ha, 19th to 22nd day after application, crop
Source text: as §2

[9] = tested on: barnyardgrass (Echinochloa crus-galli L.); assay: as above; settings: 250 g/ha, 19th to 22nd day after application
Source text: as §2

[10] = tested on: crabgrass (Digitaria sanguinalis L.); assay: as above; settings: 250 g/ha, 19th to 22nd day after application
Source text: as §2

[11] = tested on: redroot pigweed (Amaranthus retroflexus L.); assay: as above; settings: 250 g/ha, 19th to 22nd day after application
Source text: as §2

[12] = tested on: corn (Zea mays L.); assay: as above; settings: 250 g/ha, 19th to 22nd day after application, crop
Source text: as §2

[13] = tested on: prickly sida (Sida spinosa L.); assay: as above; settings: 250 g/ha, 19th to 22nd day after application
Source text: as §2

[14] = tested on: green foxtail (Setaria viridis L.); assay: as above; settings: 250 g/ha, 19th to 22nd day after application
Source text: as §2

[15] = tested on: rice (Oryza sativa L.); assay: Test Example 1: foliar treatment, upland pot; settings: 7 g/ha, 21st day after application, crop
Source text: (§3) Upland field soil was put into a 1/170,000 hectare pot, and seeds of various plants were sown. When the respective plants reached predetermined leaf stage ((1) barnyardgrass (Echinochloa crus-galli L.): 1.0 to 3.3 leaf stage, (2) crabgrass (Digitaria sanguinalis L.): 1.2 to 3.0 leaf stage, (3) green foxtail (Setaria viridis L.): 1.5 to 3.3 leaf stage, (4) redroot pigweed (Amaranthus retroflexus L.): 0.1 to 2.0 leaf stage, (5) prickly sida (Sida spinosa L.): cotyledon stage to 2.0 leaf stage, (6) velvetleaf (Abutilon theophrasti MEDIC.): 0.1 to 2.0 leaf stage, (7) rice (Oryza sativa L.): 1.3 to 3.0 leaf stage, (8) corn (Zea mays L.): 2.5 to 3.4 leaf stage, and (9) soybean (Glycine max Merr.): primary leaf stage to 0.3 leaf stage), wettable powders or emulsifiable concentrates of the compounds of the present invention prepared in accordance with a conventional preparation method, were weighed so that the active ingredients became the prescribed amounts, and diluted with water in an amount corresponding to 500 liter per 1 hectare (containing 0.1 vol % of an agricultural spreader (“KUSARINOH”, manufactured by NIHON NOHYAKU CO., LTD.)). The spray solutions thus prepared were applied for foliar treatment by a small sprayer.

[16] = tested on: soybean (Glycine max Merr.); assay: Test Example 1: foliar treatment, upland pot; settings: 7 g/ha, 21st day after application, crop
Source text: as §3

[17] = tested on: barnyardgrass (Echinochloa crus-galli L.); assay: Test Example 1: foliar treatment, upland pot; settings: 7 g/ha, 21st day after application
Source text: as §3

[18] = tested on: crabgrass (Digitaria sanguinalis L.); assay: Test Example 1: foliar treatment, upland pot; settings: 7 g/ha, 21st day after application
Source text: as §3

[19] = tested on: redroot pigweed (Amaranthus retroflexus L.); assay: Test Example 1: foliar treatment, upland pot; settings: 7 g/ha, 21st day after application
Source text: as §3

[20] = tested on: corn (Zea mays L.); assay: Test Example 1: foliar treatment, upland pot; settings: 7 g/ha, 21st day after application, crop
Source text: as §3

[21] = tested on: prickly sida (Sida spinosa L.); assay: Test Example 1: foliar treatment, upland pot; settings: 7 g/ha, 21st day after application
Source text: as §3

[22] = tested on: green foxtail (Setaria viridis L.); assay: Test Example 1: foliar treatment, upland pot; settings: 7 g/ha, 21st day after application
Source text: as §3

CCOC(=O)OC(C)Oc1c(C(=O)c2ccc(S(C)(=O)=O)c(OCCOC)c2C)cnn1CC (racemic) [compound 3]
Growth inhibition rate (%) Rice [1]: 40%
Growth inhibition rate (%) Velvetleaf [2]: 90%
Growth inhibition rate (%) Japanese bulrush [3]: 95%
Growth inhibition rate (%) Barnyardgrass [4]: 100%
Growth inhibition rate (%) Japanese ribbon waparo [5]: 90%
Growth inhibition rate (%) Velvetleaf [6]: 80%
Growth inhibition rate (%) Rice [7]: 100%
Growth inhibition rate (%) Soybean [8]: 20%
Growth inhibition rate (%) Barnyardgrass [9]: 100%
Growth inhibition rate (%) Crabgrass [10]: 100%
Growth inhibition rate (%) Redroot pigweed [11]: 100%
Growth inhibition rate (%) Corn [12]: 0%
Growth inhibition rate (%) Prickly sida [13]: 50%
Growth inhibition rate (%) Green foxtail [14]: 100%
Growth inhibition rate (%) Rice [15]: 80%
Growth inhibition rate (%) Soybean [16]: 70%
Growth inhibition rate (%) Barnyardgrass [17]: 95%
Growth inhibition rate (%) Crabgrass [18]: 95%
Growth inhibition rate (%) Redroot pigweed [19]: 90%
Growth inhibition rate (%) Corn [20]: 0%
Growth inhibition rate (%) Prickly sida [21]: 10%
Growth inhibition rate (%) Green foxtail [22]: 100%

COCCOc1c(S(C)(=O)=O)ccc(C(=O)c2cnn(C)c2OC(C)OC(=O)OC(C)C)c1C (racemic) [compound 4]
Growth inhibition rate (%) Rice [1]: 50%
Growth inhibition rate (%) Velvetleaf [2]: 98%
Growth inhibition rate (%) Japanese bulrush [3]: 95%
Growth inhibition rate (%) Barnyardgrass [4]: 100%
Growth inhibition rate (%) Japanese ribbon waparo [5]: 90%
Growth inhibition rate (%) Velvetleaf [6]: 70%
Growth inhibition rate (%) Rice [7]: 90%
Growth inhibition rate (%) Soybean [8]: 0%
Growth inhibition rate (%) Barnyardgrass [9]: 100%
Growth inhibition rate (%) Crabgrass [10]: 100%
Growth inhibition rate (%) Redroot pigweed [11]: 95%
Growth inhibition rate (%) Corn [12]: 0%
Growth inhibition rate (%) Prickly sida [13]: 90%
Growth inhibition rate (%) Green foxtail [14]: 95%
Growth inhibition rate (%) Rice [15]: 30%
Growth inhibition rate (%) Soybean [16]: 90%
Growth inhibition rate (%) Barnyardgrass [17]: 100%
Growth inhibition rate (%) Crabgrass [18]: 90%
Growth inhibition rate (%) Redroot pigweed [19]: 90%
Growth inhibition rate (%) Corn [20]: 0%
Growth inhibition rate (%) Prickly sida [21]: 40%
Growth inhibition rate (%) Green foxtail [22]: 100%

CCOC(=O)OC(C)Oc1c(C(=O)c2ccc(S(C)(=O)=O)c(COC)c2C)cnn1C (racemic) [compound 7]
Growth inhibition rate (%) Rice [1]: 70%
Growth inhibition rate (%) Velvetleaf [2]: 98%
Growth inhibition rate (%) Japanese bulrush [3]: 70%
Growth inhibition rate (%) Barnyardgrass [4]: 100%
Growth inhibition rate (%) Japanese ribbon waparo [5]: 60%
Growth inhibition rate (%) Velvetleaf [6]: 70%
Growth inhibition rate (%) Rice [7]: 90%
Growth inhibition rate (%) Soybean [8]: 0%
Growth inhibition rate (%) Barnyardgrass [9]: 100%
Growth inhibition rate (%) Crabgrass [10]: 90%
Growth inhibition rate (%) Redroot pigweed [11]: 80%
Growth inhibition rate (%) Corn [12]: 0%
Growth inhibition rate (%) Prickly sida [13]: 80%
Growth inhibition rate (%) Green foxtail [14]: 40%
Growth inhibition rate (%) Rice [15]: 70%
Growth inhibition rate (%) Soybean [16]: 95%
Growth inhibition rate (%) Barnyardgrass [17]: 95%
Growth inhibition rate (%) Crabgrass [18]: 90%
Growth inhibition rate (%) Redroot pigweed [19]: 85%
Growth inhibition rate (%) Corn [20]: 0%
Growth inhibition rate (%) Prickly sida [21]: 80%
Growth inhibition rate (%) Green foxtail [22]: 90%

CCOC(=O)OC(C)Oc1c(C(=O)c2ccc(S(C)(=O)=O)c(COCC(F)(F)F)c2C)cnn1C (racemic) [compound 15]
Growth inhibition rate (%) Rice [1]: 10%
Growth inhibition rate (%) Velvetleaf [2]: 98%
Growth inhibition rate (%) Japanese bulrush [3]: 60%
Growth inhibition rate (%) Barnyardgrass [4]: 100%
Growth inhibition rate (%) Velvetleaf [6]: 100%
Growth inhibition rate (%) Rice [7]: 100%
Growth inhibition rate (%) Soybean [8]: 0%
Growth inhibition rate (%) Barnyardgrass [9]: 100%
Growth inhibition rate (%) Crabgrass [10]: 100%
Growth inhibition rate (%) Redroot pigweed [11]: 100%
Growth inhibition rate (%) Corn [12]: 0%
Growth inhibition rate (%) Prickly sida [13]: 70%
Growth inhibition rate (%) Green foxtail [14]: 100%
Growth inhibition rate (%) Rice [15]: 40%
Growth inhibition rate (%) Soybean [16]: 75%
Growth inhibition rate (%) Barnyardgrass [17]: 70%
Growth inhibition rate (%) Crabgrass [18]: 95%
Growth inhibition rate (%) Redroot pigweed [19]: 90%
Growth inhibition rate (%) Corn [20]: 10%
Growth inhibition rate (%) Prickly sida [21]: 0%
Growth inhibition rate (%) Green foxtail [22]: 75%

CCOC(=O)OC(C)Oc1c(C(=O)c2ccc(S(C)(=O)=O)c(OCCOC)c2C)cnn1C(C)C (racemic) [compound 18]
Growth inhibition rate (%) Rice [1]: 0%
Growth inhibition rate (%) Velvetleaf [2]: 95%
Growth inhibition rate (%) Japanese bulrush [3]: 90%
Growth inhibition rate (%) Barnyardgrass [4]: 100%
Growth inhibition rate (%) Japanese ribbon waparo [5]: 90%
Growth inhibition rate (%) Velvetleaf [6]: 100%
Growth inhibition rate (%) Rice [7]: 100%
Growth inhibition rate (%) Barnyardgrass [9]: 100%
Growth inhibition rate (%) Crabgrass [10]: 100%
Growth inhibition rate (%) Redroot pigweed [11]: 100%
Growth inhibition rate (%) Corn [12]: 0%
Growth inhibition rate (%) Prickly sida [13]: 70%
Growth inhibition rate (%) Green foxtail [14]: 100%
Growth inhibition rate (%) Rice [15]: 70%
Growth inhibition rate (%) Soybean [16]: 80%
Growth inhibition rate (%) Barnyardgrass [17]: 95%
Growth inhibition rate (%) Crabgrass [18]: 95%
Growth inhibition rate (%) Redroot pigweed [19]: 95%
Growth inhibition rate (%) Corn [20]: 0%
Growth inhibition rate (%) Prickly sida [21]: 30%
Growth inhibition rate (%) Green foxtail [22]: 90%

CCOC(=O)OC(C)Oc1c(C(=O)c2ccc(S(C)(=O)=O)c(C(=O)OC)c2C)cnn1C (racemic) [compound 21]
Growth inhibition rate (%) Rice [1]: 10%
Growth inhibition rate (%) Velvetleaf [2]: 85%
Growth inhibition rate (%) Japanese bulrush [3]: 70%
Growth inhibition rate (%) Barnyardgrass [4]: 100%
Growth inhibition rate (%) Japanese ribbon waparo [5]: 70%
Growth inhibition rate (%) Velvetleaf [6]: 90%
Growth inhibition rate (%) Rice [7]: 100%
Growth inhibition rate (%) Soybean [8]: 50%
Growth inhibition rate (%) Barnyardgrass [9]: 100%
Growth inhibition rate (%) Crabgrass [10]: 100%
Growth inhibition rate (%) Redroot pigweed [11]: 100%
Growth inhibition rate (%) Corn [12]: 0%
Growth inhibition rate (%) Prickly sida [13]: 60%
Growth inhibition rate (%) Green foxtail [14]: 100%
Growth inhibition rate (%) Rice [15]: 80%
Growth inhibition rate (%) Soybean [16]: 95%
Growth inhibition rate (%) Barnyardgrass [17]: 90%
Growth inhibition rate (%) Crabgrass [18]: 90%
Growth inhibition rate (%) Redroot pigweed [19]: 90%
Growth inhibition rate (%) Corn [20]: 0%
Growth inhibition rate (%) Green foxtail [22]: 80%
